Series [1] concerns Bacillus subtilis. More on the design: method as in earlier work. The settings on record: cited from earlier work.
In series [2] the test system is NO production in LPS + IFN-γ activated RAW 264.7 macrophages. Nature of the series: Inhibition of LPS + IFN-γ induced nitric oxide production (Griess assay). Format: cell-based. To be noted: for IC50: Mus musculus, read-out: NO Inhibition (IC50 in μM) (n = 8); for anti-inflammatory activity (in words): NO and TNF-α. The method, then:
(§1) RAW 264.7 macrophages were grown in 175 cm^2 flasks on DMEM containing 5% foetal bovine serum (FBS) that was supplemented with penicillin (100 μg/mL), streptomycin (100 μg/mL) and L-glutamine (2 mM). The cell line was maintained in 5% CO2 at 37 °C, with media being replaced every 3–4 days. Once cells had grown to confluence in the culture flask, they were removed using a rubber policeman, as opposed to using trypsin, which can remove membrane-bound receptors. The cell suspension was concentrated by centrifugation for 3 min at 900 rpm and re-suspended in a small volume of fresh DMEM (with 1% antibiotics and 5% FBS); cell densities were estimated using a Neubauer counting chamber. The cell concentration was adjusted with DMEM (with 1% antibiotics and 5% FBS) to obtain 60,000 cells/100 μL cell suspension. An aliquot of 100 μL of this cell suspension was dispensed into the wells of 96-well plates. Plates were incubated at 37 °C, 5% CO2 for 18 h before the activation experiments were carried out.
(§2) For assays, 90 μL of each concentration of compounds (8 concentrations made by serial dilution from 0 µg/mL to 36 µg/mL compound in DMEM) were added an hour prior to addition of 10 µL of activator. A combination of 10 μg·mL^−1 LPS and 10 U·mL^−1 (1 unit = 0.1 ng/mL) IFN-γ, were used for activation. After activation, the cells were incubated for 24 h at 37 °C and then NO, TNF-α and cell viability was determined. Unactivated cells (exposed to media alone) were used as negative control and activated cells as positive control.
Nitric oxide was determined by Griess reagent quantification of nitrite. Griess reagent was freshly made up of equal volumes of 1% sulfanilamide and 0.1% napthyethylene-diamine in 5% HCl. From each well, 50 µL of supernatant was transferred to a fresh 96-well plate and mixed with 50 µL of Griess reagent and measured at 540 nm in a POLARstar Omega microplate reader (BMG Labtech, Mornington, Australia). The concentration of nitrite was calculated using a standard curve with […] (0–500 μM), and linear regression analysis.
(§3) Data calculations were performed using MS-Excel 2010 software. IC50 values were obtained by using the sigmoidal dose–response function in GraphPad Prism. The results were expressed as mean ± standard deviation (SD).
For orientation: Nitrite, measured by Griess reagent, commonly stands in for NO production.

Series [3] deals with TNF-α production in LPS + IFN-γ activated RAW 264.7 macrophages. Nature of the series: Inhibition of LPS + IFN-γ induced TNF-α production (ELISA). Format: cell-based. To be noted: for IC50: Mus musculus, read-out: TNF-α Inhibition (IC50 in µM) (n = 3). The method, then:
as §1, §2
The diluted supernatants were used for determination of TNF-α using a commercial sandwich ELISA (Peprotech) according to the manufacturer’s protocol. In brief, the capture antibody was used at a concentration of 1.5 μg·mL^−1 in PBS (1.9 mM NaH2PO4, 8.1 mM Na2HPO4, 154 mM NaCl) (pH 7.4). Serial dilutions of TNF-α standard from 0 to 10,000 pg·mL^−1 in diluent (0.05% Tween-20, 0.1% BSA in PBS) were used as internal standard. TNF-α was detected with a biotinylated second antibody and an Avidin peroxidase conjugate with TMB as detection reagent. The colour development was monitored at 655 nm, taking readings every 5 min. After approximately 30 min the reaction was stopped using 0.5 M sulphuric acid and the absorbance was measured at 450 nm using a POLARstar Omega microplate reader (BMG Labtech, Mornington, Australia), expressed as a percentage in control cells after conversion of the concentrations, using a standard curve constructed with defined concentrations of TNF-α. Curve fitting of this standard curve and extrapolation of experimental data were performed using non-linear regression analysis.
as §3
(ELISA stands for enzyme-linked immunosorbent assay.)

Series [4] is described as follows: Cell viability by the Alamar Blue assay (cytotoxicity). Format: cell-based. The settings on record: mouse, RAW 264.7, 24 h, mean ± SD, read-out: Cytotoxicity (LC50 in μM) (n = 8). As to the method: as §1, §2
One hundred microlitres of Alamar Blue solution (10% Alamar Blue (Resazurin) in DMEM media) was added to each well, incubated at 37 °C for 2 h. After incubation, fluorescence intensity was measured with the microplate reader (excitation at 530 nm and emission at 590 nm) and results were expressed as a percentage of the intensity of that in control cells, after background fluorescence was subtracted.
as §3
Background: Alamar Blue is a resazurin reagent that responds to reducing activity.

Series [5] concerns SCC4 OSCC cells. More on the design: method as in doi:10.1016/j.jff.2015.07.017. The settings on record: read-out: suppression of proliferation IC50; cited from earlier work.
In series [6] the test system is SCC2095 OSCC cells. More on the design: method as in doi:10.1016/j.jff.2015.07.017. To be noted: read-out: suppression of proliferation IC50; cited from earlier work.
Series [7] deals with 12-O-tetradecanoylphorbol 13 acetate (TPA)-induced topical inflammation in mice ears. Details: method as in PMID 16697209. The settings on record: cited from earlier work.
For series [8], the system named is NO production in LPS-stimulated RAW 264.7 cells. More on the design: method as in PMID 19557361. To be noted: cited from earlier work.
Where [9] appears, read: RAW264.7, RAW 264.7, LPS + IFN-γ, 24 h, Griess assay, mean ± SD.
[10] abbreviates: RAW264.7, RAW 264.7, LPS + IFN-γ, 24 h, ELISA, mean ± SD.
[11] abbreviates: RAW 264.7 macrophages activated with LPS and IFN-γ.

Where two headings read alike, the source gives them in different places.

As for `C=C(C)C1CCC2(C(=O)O)CCC3(C)C(CCC4C5(C)CC(=O)C(O)C(C)(C)C5CCC43C)C12` (stereo not shown) [2-ketobetulinic acid, reference compound], the antibacterial activity result in series [1] is given as “showed antibacterial activity”.

Consider `C=C(C)[C@@H]1CC[C@]2(C(=O)O)CC[C@]3(C)[C@H](CC[C@@H]4[C@@]5(C)[C@@H](C(=O)O)[C@H](O)C(C)(C)[C@@H]5CC[C@]43C)C12` (stereo partly shown) [Compound 1, emmolic acid], for which the IC50 in series [2] (RAW264.7, 24 h) is more than 36 µM; in series [3] (RAW264.7, 24 h), more than 36 µM. In addition, the “anti-inflammatory activity (in words)” value in series [2] (RAW 264.7, LPS + IFN-γ) is “inactive”. For the same compound, the CC50 at 24 h in series [4] was more than 36 µM.

As for `C=C(C)[C@@H]1CC[C@]2(C(=O)O)CC[C@]3(C)[C@H](CC[C@@H]4[C@@]5(C)C[C@@H](O)[C@H](O)C(C)(C)[C@@H]5CC[C@]43C)[C@@H]12` [Compound 2, alphitolic acid], the IC50 is 17.6 ± 0.7 µM in series [2] (RAW264.7, 24 h); 22.7 ± 1.1 µM in series [3] (RAW264.7, 24 h); 12 µM in series [5]; 15 µM in series [6]. Besides, in series [4], the CC50 at 24 h is 18.6 ± 0.8 µM. Moreover, in series [7], the “inhibition of TPA-induced topical inflammation” value is “inhibit”.

Take `C=C(C)[C@@H]1CC[C@]2(C(=O)O)CC[C@]3(C)[C@H](CC[C@@H]4[C@@]5(C)C[C@@H](OC(=O)/C=C/c6ccc(O)cc6)[C@H](O)C(C)(C)[C@@H]5CC[C@]43C)[C@@H]12` [Compound 3, trans-coumaroyl alphitolic acid]: the IC50 in series [2] (RAW264.7, 24 h) came to 1.7 ± 0.3 µM; in series [3] (RAW264.7, 24 h), 10.9 ± 2.3 µM. In addition, the “increase in potency of NO inhibition compared with compound 2” value in series [2] (RAW 264.7, LPS + IFN-γ) is recorded as “ten-fold”. The CC50 at 24 h in series [4] came to 4.8 ± 0.9 µM.

With `C=C(C)[C@@H]1CC[C@]2(C(=O)O)CC[C@]3(C)[C@H](CC[C@@H]4[C@@]5(C)C[C@@H](OC(=O)/C=C\c6ccc(O)cc6)[C@H](O)C(C)(C)[C@@H]5CC[C@]43C)[C@@H]12` [Compound 4, cis-coumaroyl alphitolic acid], the IC50 was determined as 3.5 ± 0.5 µM in series [2] (RAW264.7, 24 h) and 5.6 ± 0.4 µM in series [3] (RAW264.7, 24 h). In series [3] (RAW 264.7, LPS + IFN-γ), the “inhibition of TNF-α (in words)” value is on record as “strong inhibition”. In addition, the CC50 at 24 h in series [4] was determined as 8 ± 0.3 µM.

Consider `C=C(C)[C@@H]1CC[C@]2(C(=O)O)CC[C@]3(C)[C@H](CC[C@@H]4[C@@]5(C)CC[C@H](O)C(C)(C)[C@@H]5CC[C@]43C)[C@@H]12` [Compound 5, betulinic acid], for which the IC50 in series [2] (setting [9]) worked out at 8.3 ± 1 µM; in series [3] (setting [10]) it was 23.5 ± 3.7 µM. In series [4] (setting [11]), the CC50 at 24 h is 29.1 ± 4.4 µM. Moreover, the antibacterial activity result in series [1] is “showed antibacterial activity”.

As for `C=C(C)[C@@H]1CC[C@]2(C(=O)O)CC[C@]3(C)[C@H](CC[C@@H]4[C@@]5(C)[C@@H](C(=O)O)[C@H](OC(C)=O)C(C)(C)[C@@H]5CC[C@]43C)C12` (stereo partly shown) [Compound 6, emmolic acid acetate], the IC50 in series [2] (setting [9]) was 14.7 ± 0.6 µM; in series [3] (setting [10]), more than 36 µM. In series [2] (RAW 264.7, LPS + IFN-γ), the “anti-inflammatory activity (in words)” value is “moderate anti-inflammatory activity”. Moreover, the CC50 at 24 h in series [4] is 13.1 ± 2.5 µM.

As for `O=C(O)Cc1ccccc1Nc1c(Cl)cccc1Cl` [Diclofenac, diclofenac sodium, reference compound], the IC50 is 217 ± 43 µM in series [2] (setting [9]) and more than 333 µM in series [3] (setting [10]). Moreover, the CC50 at 24 h in series [4] (setting [11]) is more than 333 µM.

Take `CC(C)Cc1ccc(C(C)C(=O)O)cc1` (stereo not shown) [Ibuprofen, ibuprofen, reference compound]: the values for the IC50 in series [2] (setting [9]) and in series [3] (setting [10]) were 1160 ± 133 µM and 723 ± 261 µM, respectively. Further, the CC50 at 24 h in series [4] (setting [11]) was more than 1500 µM.

As for `C=C(C)C1CCC2(C(=O)O)CCC3(C)C(CCC4C5(C)CCC(OC(=O)C=Cc6ccc(O)c(O)c6)C(C)(C)C5CCC43C)C12` (stereo not shown) [betulinic acid 3-O-caffeate], in series [8], the “NO inhibition (in words)” value is listed as “most active compound”.

The values above are taken from PMC6273140, “Anti-Inflammatory Chemical Profiling of the Australian Rainforest Tree Alphitonia petriei (Rhamnaceae)” (Molecules, 2016).
